Source: patent US6858414B2, “Multistage process for the preparation of highly pure deferoxamine mesylate salt” (Biogal Gyógyszergyár Rt., priority 1999, dated 2005)

Legend:
[1] = cited from earlier work
[2] = association constant; cited from earlier work
[3] = tested on: secondary iron overload from multiple transfusions; conditions: cited from earlier work
[4] = association constant; cited from earlier work; remark: listed apart in the source
[5] = stability as solid and in concentrated solution; assay type: physicochemical

For CC(=O)N(O)CCCCCNC(=O)CCC(=O)N(O)CCCCCNC(=O)CCC(=O)N(O)CCCCCN [Deferoxamine B, N′-[5-[[4-[[5-(acetylhydroxyamino)pentyl]amino]-1,4-dioxobutyl]hydroxyamino]pentyl]-N-(5-aminopentyl)-N-hydroxy-butanediamide], the oral absorption [1] is given as “not well-absorbed orally”, the “affinity for ferric iron (Ka)” value [2] is given as 10^31 and the “accumulation of hepatic iron” value ([3]; long term therapy) is given as “slows accumulation of hepatic iron”. For the same compound, the “progression of hepatic fibrosis” value ([3]; long term therapy) was “retards or eliminates progression of hepatic fibrosis”, the iron excretion ([3]; patients with secondary iron overload from multiple transfusions) was “promotes iron excretion” and the “affinity for calcium (Ka)” value [4] was 10^2. The stability in solution ([5]; concentrated solution, on evaporation) was “prone to decomposition in concentrated solution” and the stability as solid ([5]; solid) was “reasonably stable solid”.
